Measurements taken from US12378203B2, “Imidazole compounds, process for the synthesis and uses thereof” (AHAMMUNE BIOSCIENCES PRIVATE LIMITED, priority 2018, dated 2025).

Assays:
Assay type in all cases: cell-based
human A375 cells = assay: Protection of melanocytes from tunicamycin (ER stress) induced cell death, MTT assay, A375; conditions: for EC50: Homo sapiens, A-375, different concentrations of compound along with tunicamycin, GraphPad Prism 7; for % Recovery: compound at 25-30 μM, 6 h pretreatment, tunicamycin 100 ng/ml, total 72 h, cell growth over tunicamycin treatment
Procedure: (§1) Compounds synthesized under present invention were tested for their in vitro potency. The potency was tested as their ability to protect melanocytes from ER stress induced cell death. ER stress was caused by the treatment of tunicamycin. The results obtained are summarized in Table-I, Table-II and Table-III for mouse B16F10 cells, human A375 cells and human primary melanocytes respectively. Table-IV and Table-V describes the potency of the compounds in effective concentration 50 (EC50) which means the dose of compound needed to get the 50% of maximum effect.
(§2) For the estimation of potency, mouse B16F10, human A375 or human primary melanocytes (NHEM) cells were pretreated in quadruplicates with these compounds for 6 hours. After 6 hours of incubation, tunicamycin was added at either 300 ng/ml for B16F10 cells or at 100 ng/ml for A375 cells or at 200 ng/ml for NHEM to induce stress mediated cell death and cultured further for a total of 72 hours. The vehicle (DMSO) concentration was kept constant for each well. After 72 hours of treatment, MTT assay was performed to measure the cell growth and vehicle control was kept at 100%. Effect of the treatment of compounds was calculated as cell growth over tunicamycin treatment. For the estimation of Effective Concentration 50 (EC50), cells were treated with different concentration of compounds along with tunicamycin and MTT assay was performed. The EC50 values were calculated by GraphPad Prism 7 software.

[1] = system: human primary melanocytes (NHEM: Normal Human Epidermal Melanocytes); assay: Protection of melanocytes from tunicamycin (ER stress) induced cell death, MTT assay, NHEM; conditions: compound at 25-30 μM, 6 h pretreatment, tunicamycin 200 ng/ml, total 72 h, cell growth over tunicamycin treatment
Procedure: as §1, §2

mouse B16F10 cells = assay: Protection of melanocytes from tunicamycin (ER stress) induced cell death, MTT assay, B16F10; conditions: for % Recovery: compound at 25-30 μM, 6 h pretreatment, tunicamycin 300 ng/ml, total 72 h, cell growth over tunicamycin treatment
Procedure: as §1, §2

Structure (SMILES)	EC50 (human A375 cells)	% Recovery (human A375 cells)	% Recovery [1]	EC50 (mouse B16F10 cells; Mus musculus, B16-F10, different concentrations of compound along with tunicamycin, GraphPad Prism 7)	% Recovery (mouse B16F10 cells)
O=C(NCCc1c[nH]c(-c2ccc(Cl)cc2)n1)c1ccc(C(F)(F)F)cc1 [Compound 053, N-(2-(2-(4-chlorophenyl)-1H-imidazol-4-yl)ethyl)-4-(trifluoromethyl)benzamide]	2.9 µM	65%	37%	18.1 µM	24%
O=C(NCCc1c[nH]c(-c2ccc(Cl)cc2)n1)c1cc(F)cc(F)c1 [Compound 054, N-(2-(2-(4-chlorophenyl)-1H-imidazol-4-yl)ethyl)-3,5-difluorobenzamide]	2.9 µM	58%	46%	–	33%
O=C(NCCc1c[nH]c(-c2ccc(Cl)cc2)n1)C1=CCCC1 [Compound 055, N-(2-(2-(4-chlorophenyl)-1H-imidazol-4-yl)ethyl)cyclopent-1-ene-1-carboxamide]	8.9 µM	59%	13%	–	10%
